In data set [1] the target is T1, human GLP-1 receptor (Homo sapiens, UniProt P43220).
T1 construct: expressed in transfected cells
The data set is described as follows: cAMP response (HTRF) of HEK-293 cells stably expressing human GLP-1 receptor. The settings on record: Table 7; cAMP formation; read-out: EC50 hGLP-1 R. The data set is classed as cell-based. On the procedure: (§1) cAMP content of cells was determined using a kit from Cisbio Corp. (cat. no. 62AM4PEC) based on HTRF (Homogenous Time Resolved Fluorescence). For preparation, cells were split into T175 culture flasks and grown overnight to near confluency in medium (DMEM/10% FBS). Medium was then removed and cells washed with PBS lacking calcium and magnesium, followed by proteinase treatment with accutase (Sigma-Aldrich cat. no. A6964). Detached cells were washed and resuspended in assay buffer (1×HBSS; 20 mM HEPES, 0.1% BSA, 2 mM IBMX) and cellular density determined. They were then diluted to 400000 cells/ml and 25 μl-aliquots dispensed into the wells of 96-well plates. For measurement, 25 μl of test compound in assay buffer was added to the wells, followed by incubation for 30 minutes at room temperature.
On the technique in general: Time-resolved FRET reads energy transfer from a long-lived donor to a nearby acceptor.

The nature of data set [2]: Pharmacokinetic testing in mice, s.c. The settings on record: mouse, plasma, sc, 1 mg/kg.
Description: Mice were dosed 1 mg/kg subcutaneously (s.c.). The mice were sacrified and blood samples were collected after 0.25, 0.5, 1, 2, 4, 8, 16 and 24 hours post application. Plasma samples were analyzed after protein precipitation via liquid chromatography mass spectrometry (LC/MS). PK parameters and half-life were calculated using WinonLin Version 5.2.1 (non-compartment model).
The nature of data set [3]: Solubility testing in buffer (HPLC-UV). The conditions noted are these: buffer.
The nature of data set [4]: Chemical stability in solution, 7 days at 25° C. (% remaining peptide). The settings on record: % remaining peptide after 7 days at 25° C.
Description: After that time course, the sample was centrifuged for 20 min at 4000 rpm and the supernatant was analysed with HPLC-UV. For determination of the amount of the remaining peptide, the peak areas of the target compound at t0 and t7 were compared, resulting in “% remaining peptide”, following the equation % remaining peptide=[(peak area peptide t7)×100]/peak area peptide t0.
The chemical stability is expressed as “% remaining peptide”.
For data set [5], the system named is female leptin-receptor deficient diabetic db/db mice. The data set is described as follows: Blood glucose and HbA1c in leptin-receptor deficient diabetic db/db mice (method 3). The data set is classed as in vivo. The conditions noted are these: single 100 μg/kg s.c., fed db/db mice. From the text: Female BKS.Cg-m+/+Leprdb/J (db/db) and BKS.Cg-m+/+Leprdb/+(lean control) mice were obtained from Charles River Laboratories, Germany, at an age of 9-10 weeks. The animals were housed in groups in a specific pathogen-free barrier facility on a 12-h light/dark cycle with free access to water and rodent-standard chow. After 1 week of acclimatization, blood samples were drawn from the tail without anaesthesia and blood glucose (method: d-glucose hexokinase, hemolysate, AU640 Beckman Coulter) and HbA1c level (method: hemolysate, Cobas6000 c501, Roche Diagnostics, Germany) were determined. […] The volume of administration was 5 mL/kg. The animals had access to water and chow during the experiment, food consumption was determined at all time points of blood sampling. […] Blood sampling was performed by tail incision without anaesthesia. […] At the end of the study, blood samples (tail, no anaesthesia) were analyzed for glucose and HbA1c. […] Statistical analyses were performed with Everstat 6.0 by repeated measures two-way ANOVA and Dunnett's post-hoc analyses. Differences versus vehicle-treated db/db control mice were considered statistically significant at the p<0.05 level. […] At predefined time points, more blood samples were taken to measure blood glucose and generate the blood glucose profile over 24 h. […] Blood glucose and HbA1c were determined before start of treatment and at the end of the study after 4 weeks of treatment. […] Before treatment started, no significant differences in blood glucose levels could be detected between db/db groups, only the lean control animals had significant lower glucose levels. During the 4 weeks of treatment, glucose levels increased in the vehicle-treated db/db control group, indicating a worsening of the diabetic situation.

Data set [6] addresses T2, human GIP receptor (Homo sapiens, UniProt P48546).
T2 construct: expressed in transfected cells
T2 sequence (P48546 22-466): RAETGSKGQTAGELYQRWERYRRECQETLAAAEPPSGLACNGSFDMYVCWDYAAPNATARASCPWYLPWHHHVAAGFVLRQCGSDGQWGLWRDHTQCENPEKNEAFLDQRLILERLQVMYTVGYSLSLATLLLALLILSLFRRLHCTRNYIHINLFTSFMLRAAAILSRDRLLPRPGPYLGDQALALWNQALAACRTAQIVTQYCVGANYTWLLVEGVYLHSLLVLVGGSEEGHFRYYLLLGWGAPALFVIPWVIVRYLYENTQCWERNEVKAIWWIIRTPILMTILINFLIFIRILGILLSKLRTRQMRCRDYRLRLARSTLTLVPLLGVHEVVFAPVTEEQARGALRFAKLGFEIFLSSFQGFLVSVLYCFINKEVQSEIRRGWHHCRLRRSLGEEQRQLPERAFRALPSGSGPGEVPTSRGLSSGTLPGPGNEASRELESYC
As to the kind of experiment: cAMP response (HTRF) of HEK-293 cells stably expressing human GIP receptor. The data set is classed as cell-based. The conditions noted are these: Table 7; cAMP formation; read-out: EC50 hGIP R. The method, then:
as §1

SMILES strings stand for the structures. ≈ marks a conversion by molar mass, not a printed value. *1 amine or outer side, *2 acyl side, *3 side chain or, on linkers, in order; H or OH if unused. Where a SMILES comes first, the peptide text is derived from it. Side-chain parts run from the residue outwards. [ ]: non-standard residue; d: D form. The star is where a group is joined. γGlu = O=C(O)[C@H](CCC(=O)[*:2])N[*:1]; Palmitoyl = CCCCCCCCCCCCCCCC(=O)*; Aib = CC(C)(N)C(=O)O A value given as a limit tells only on which side of the number the result lay.

The EC50 is the concentration needed to bring the measured effect to its halfway point. What is called Cmax is the peak of the concentration-time curve. For orientation: half-life means the time needed for the level to fall by half in the phase considered. In general, solubility refers to the concentration that dissolves in the medium under given conditions. Read a low solubility as a poorly soluble substance.

T1 sequence (P43220 24-463): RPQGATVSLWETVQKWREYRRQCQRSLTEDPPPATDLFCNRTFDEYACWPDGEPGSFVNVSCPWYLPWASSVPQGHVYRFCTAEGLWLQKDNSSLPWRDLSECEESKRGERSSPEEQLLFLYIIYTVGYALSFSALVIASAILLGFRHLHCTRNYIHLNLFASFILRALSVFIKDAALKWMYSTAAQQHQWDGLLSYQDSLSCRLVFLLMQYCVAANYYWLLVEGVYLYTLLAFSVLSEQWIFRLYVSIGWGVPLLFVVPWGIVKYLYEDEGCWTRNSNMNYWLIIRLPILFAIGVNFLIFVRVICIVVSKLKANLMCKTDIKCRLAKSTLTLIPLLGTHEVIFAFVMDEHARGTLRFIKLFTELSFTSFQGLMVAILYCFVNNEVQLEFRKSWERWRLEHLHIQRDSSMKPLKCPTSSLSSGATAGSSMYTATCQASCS

For `CCCCCCCCCCCCCCCC(=O)N[C@@H](CCC(=O)NCCCC[C@H](NC(=O)[C@H](CCC(N)=O)NC(=O)[C@@H](NC(=O)[C@H](CO)NC(=O)[C@H](CC(C)C)NC(=O)[C@H](CC(=O)O)NC(=O)[C@H](CO)NC(=O)[C@@H](NC(=O)[C@H](Cc1ccccc1)NC(=O)[C@@H](NC(=O)CNC(=O)[C@H](CCC(N)=O)NC(=O)C(C)(C)NC(=O)[C@@H](N)Cc1ccc(O)cc1)[C@@H](C)O)[C@@H](C)O)[C@@H](C)CC)C(=O)N[C@@H](CCC(=O)O)C(=O)N[C@@H](CCCCN)C(=O)N[C@@H](CCCNC(=N)N)C(=O)N[C@@H](C)C(=O)N[C@@H](C)C(=O)NC(C)(C)C(=O)N[C@@H](CCC(=O)O)C(=O)N[C@@H](Cc1ccccc1)C(=O)N[C@H](C(=O)N[C@@H](CCC(=O)O)C(=O)N[C@@H](Cc1c[nH]c2ccccc12)C(=O)N[C@@H](CC(C)C)C(=O)N[C@@H](CCCCN)C(=O)N[C@@H](CC(N)=O)C(=O)N[C@H](C(=O)NCC(=O)N1CCC[C@H]1C(=O)N[C@@H](CO)C(=O)N[C@@H](CO)C(=O)NCC(=O)N[C@@H](C)C(=O)N1CCC[C@H]1C(=O)N1CCC[C@H]1C(=O)N1CCC[C@H]1C(=O)N[C@@H](CO)C(N)=O)[C@@H](C)O)[C@@H](C)CC)C(=O)O` [SEQ ID NO: 8, Y-Aib-Q-G-T-F-T-S-D-L-S-I-Q-K(γE-x53)-E-K-R-A-A-Aib-E-F-I-E-W-L-K-N-T-G-P-S-S-G-A-P-P-P-S-NH2] (H-Y[Aib]QGTFTSDLSIQK([γGlu-Palmitoyl])EKRAA[Aib]EFIEWLKNTGPSSGAPPPS-NH2), in data set [1], the EC50 amounted to 5.3 pM. In data set [2], this compound yielded a Cmax of 3740 ng/mL. For the same compound, the half-life in data set [2] is 3.4 h. In addition, the solubility at 2 h in data set [3] (pH 4.5) is above 1000 µg/mL; in data set [3] (pH 7.4), 972 µg/mL (≈ 212 µM). In addition, the “Stability (pH 4.5)” value in data set [4] (pH 4.5) was 98.0%. Moreover, the “Stability (pH 7.4)” value in data set [4] (pH 7.4) was 98.0%.
Regarding `CCCCCCCCCCCCCCCC(=O)N[C@@H](CCC(=O)NCCCC[C@H](NC(=O)[C@H](CCC(N)=O)NC(=O)[C@@H](NC(=O)[C@H](CO)NC(=O)[C@H](CC(C)C)NC(=O)[C@H](CC(=O)O)NC(=O)[C@H](CO)NC(=O)[C@@H](NC(=O)[C@H](Cc1ccccc1)NC(=O)[C@@H](NC(=O)CNC(=O)[C@H](CCC(=O)O)NC(=O)C(C)(C)NC(=O)[C@@H](N)Cc1ccc(O)cc1)[C@@H](C)O)[C@@H](C)O)[C@@H](C)CC)C(=O)N[C@@H](CCC(=O)O)C(=O)N[C@@H](CO)C(=O)N[C@@H](CCCNC(=N)N)C(=O)N[C@@H](C)C(=O)N[C@@H](C)C(=O)N[C@@H](CCC(N)=O)C(=O)N[C@@H](CC(=O)O)C(=O)N[C@@H](Cc1ccccc1)C(=O)N[C@H](C(=O)N[C@@H](CCC(=O)O)C(=O)N[C@@H](Cc1c[nH]c2ccccc12)C(=O)N[C@@H](CC(C)C)C(=O)N[C@@H](CCCCN)C(=O)N[C@@H](C)C(=O)NCC(=O)NCC(=O)N1CCC[C@H]1C(=O)N[C@@H](CO)C(=O)N[C@@H](CO)C(=O)NCC(=O)N[C@@H](C)C(=O)N1CCC[C@H]1C(=O)N1CCC[C@H]1C(=O)N1CCC[C@H]1C(=O)N[C@@H](CO)C(N)=O)[C@@H](C)CC)C(=O)O` [SEQ ID NO: 10, Y-Aib-E-G-T-F-T-S-D-L-S-I-Q-K(γE-x53)-ESRAAQDFIEWLKAGGPSSGAPPPS-NH2] (H-Y[Aib]EGTFTSDLSIQK([γGlu-Palmitoyl])ESRAAQDFIEWLKAGGPSSGAPPPS-NH2), the “blood glucose compared to db/db control mice, 24 h profile” value in data set [5] was “significant decrease in blood glucose”. In addition, in data set [2], the Cmax was 5820 ng/mL and the half-life is 2.7 h.
With `CCCCCCCCCCCCCCCC(=O)N[C@@H](CCC(=O)NCCCC[C@H](NC(=O)[C@H](CCC(N)=O)NC(=O)[C@@H](NC(=O)[C@H](CO)NC(=O)[C@H](CC(C)C)NC(=O)[C@H](CC(=O)O)NC(=O)[C@H](CO)NC(=O)[C@@H](NC(=O)[C@H](Cc1ccccc1)NC(=O)[C@@H](NC(=O)CNC(=O)[C@H](CCC(=O)O)NC(=O)C(C)(C)NC(=O)[C@@H](N)Cc1ccc(O)cc1)[C@@H](C)O)[C@@H](C)O)[C@@H](C)CC)C(=O)N[C@@H](CCC(=O)O)C(=O)N[C@@H](CCCCN)C(=O)N[C@@H](CCCNC(=N)N)C(=O)N[C@@H](C)C(=O)N[C@@H](C)C(=O)NC(C)(C)C(=O)N[C@@H](CC(=O)O)C(=O)N[C@@H](Cc1ccccc1)C(=O)N[C@H](C(=O)N[C@@H](CCC(=O)O)C(=O)N[C@@H](Cc1c[nH]c2ccccc12)C(=O)N[C@@H](CC(C)C)C(=O)N[C@@H](CCCCN)C(=O)N[C@@H](CC(N)=O)C(=O)N[C@H](C(=O)NCC(=O)N1CCC[C@H]1C(=O)N[C@@H](CO)C(=O)N[C@@H](CO)C(=O)NCC(=O)N[C@@H](C)C(=O)N1CCC[C@H]1C(=O)N1CCC[C@H]1C(=O)N1CCC[C@H]1C(=O)N[C@@H](CO)C(N)=O)[C@@H](C)O)[C@@H](C)CC)C(=O)O` [SEQ ID NO: 27, Y-Aib-E-G-T-F-T-S-D-L-S-I-Q-K(γE-x53)-E-K-R-A-A-Aib-D-F-I-E-W-L-K-N-T-G-P-S-S-G-A-P-P-P-S-NH2] (H-Y[Aib]EGTFTSDLSIQK([γGlu-Palmitoyl])EKRAA[Aib]DFIEWLKNTGPSSGAPPPS-NH2), the EC50 worked out at 4 pM in data set [1] and 6.7 pM in data set [6].
For the compound `CCCCCCCCCCCCCCCC(=O)N[C@@H](CCC(=O)NCCCC[C@H](NC(=O)[C@H](CCC(N)=O)NC(=O)[C@@H](NC(=O)[C@H](CO)NC(=O)[C@H](CC(C)C)NC(=O)[C@H](CC(=O)O)NC(=O)[C@H](CO)NC(=O)[C@@H](NC(=O)[C@H](Cc1ccccc1)NC(=O)[C@@H](NC(=O)CNC(=O)[C@H](CCC(=O)O)NC(=O)C(C)(C)NC(=O)[C@@H](N)Cc1ccc(O)cc1)[C@@H](C)O)[C@@H](C)O)[C@@H](C)CC)C(=O)N[C@@H](CCC(=O)O)C(=O)N[C@@H](CCCCN)C(=O)N[C@@H](CCCNC(=N)N)C(=O)N[C@@H](C)C(=O)N[C@@H](C)C(=O)NC(C)(C)C(=O)N[C@@H](CCC(=O)O)C(=O)N[C@@H](Cc1ccccc1)C(=O)N[C@H](C(=O)N[C@@H](CCC(=O)O)C(=O)N[C@@H](Cc1c[nH]c2ccccc12)C(=O)N[C@@H](CC(C)C)C(=O)N[C@@H](CCCCN)C(=O)N[C@@H](C)C(=O)NCC(=O)NCC(=O)N1CCC[C@H]1C(=O)N[C@@H](CO)C(=O)N[C@@H](CO)C(=O)NCC(=O)N[C@@H](C)C(=O)N1CCC[C@H]1C(=O)N1CCC[C@H]1C(=O)N1CCC[C@H]1C(=O)N[C@@H](CO)C(N)=O)[C@@H](C)CC)C(=O)O` [SEQ ID NO: 36, Y-Aib-E-G-T-F-T-S-D-L-S-I-Q-K(γE-x53)-E-K-R-A-A-Aib-E-F-I-E-W-L-K-A-G-G-P-S-S-G-A-P-P-P-S-NH2] (H-Y[Aib]EGTFTSDLSIQK([γGlu-Palmitoyl])EKRAA[Aib]EFIEWLKAGGPSSGAPPPS-NH2), the EC50 in data set [6] was 6.4 pM.
